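These data come from cells grown in 96-well plates and exposed to compound for 48 hours at five concentrations. GI50: concentration for 50% inhibition of growth. TGI is the concentration that stops growth completely.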
Columns and labels:
Test in all cases: NCI anticancer screen, dose series, 48 h
NCI-H522 lung = test system: NCI-H522 lung
COLO 205 colon = test system: COLO 205 colon
MDA-MB-435 = test system: MDA-MB-435
OVCAR-4 ovarian = test system: OVCAR-4 ovarian
NCI/ADR-RES ovarian = test system: NCI/ADR-RES ovarian
ACHN renal = test system: ACHN renal
TK-10 renal = test system: TK-10 renal
RXF 393 renal = test system: RXF 393 renal
SF-295 CNS = test system: SF-295 CNS
HCT-15 colon = test system: HCT-15 colon
SF-539 CNS = test system: SF-539 CNS
IGROV1 ovarian = test system: IGROV1 ovarian
UACC-257 melanoma = test system: UACC-257 melanoma
A549 NSCLC = test system: A549 NSCLC
OVCAR-8 ovarian = test system: OVCAR-8 ovarian
OVCAR-5 ovarian = test system: OVCAR-5 ovarian
NCI-H23 lung = test system: NCI-H23 lung
KM12 colon = test system: KM12 colon
SW-620 colon = test system: SW-620 colon
SK-OV-3 ovarian = test system: SK-OV-3 ovarian
SNB-19 CNS = test system: SNB-19 CNS
SK-MEL-2 melanoma = test system: SK-MEL-2 melanoma
A498 renal = test system: A498 renal
M14 melanoma = test system: M14 melanoma
SK-MEL-5 melanoma = test system: SK-MEL-5 melanoma
SF-268 CNS = test system: SF-268 CNS
HS 578T breast = test system: HS 578T breast
UO-31 renal = test system: UO-31 renal
K-562 leukemia = test system: K-562 leukemia
CAKI-1 renal = test system: CAKI-1 renal
SK-MEL-28 melanoma = test system: SK-MEL-28 melanoma
LOX IMVI melanoma = test system: LOX IMVI melanoma
HCC-2998 colon = test system: HCC-2998 colon
MALME-3M melanoma = test system: MALME-3M melanoma
HT29 colon = test system: HT29 colon
NCI-H460 lung = test system: NCI-H460 lung
DU-145 prostate = test system: DU-145 prostate
MOLT-4 leukemia = test system: MOLT-4 leukemia
UACC-62 melanoma = test system: UACC-62 melanoma
SNB-75 CNS = test system: SNB-75 CNS
HCT-116 colon = test system: HCT-116 colon
HOP-62 NSCLC = test system: HOP-62 NSCLC
MCF7 breast = test system: MCF7 breast
SR leukemia = test system: SR leukemia
786-0 renal = test system: 786-0 renal
EKVX NSCLC = test system: EKVX NSCLC
U251 CNS = test system: U251 CNS
BT-549 breast = test system: BT-549 breast

CCN(CC)c1ccc2c(c1)Oc1nc(N)c(C#N)c(N)c1C2Sc1ccc(F)cc1 (stereo unspecified)
GI50 (NCI-H522 lung): 1800 nM | TGI (NCI-H522 lung): 3310 nM | GI50 (COLO 205 colon): 1220 nM | TGI (COLO 205 colon): 2670 nM | GI50 (MDA-MB-435): 1330 nM | TGI (MDA-MB-435): 2730 nM | GI50 (OVCAR-4 ovarian): 1750 nM | TGI (OVCAR-4 ovarian): 3180 nM | GI50 (NCI/ADR-RES ovarian): 2280 nM | TGI (NCI/ADR-RES ovarian): 5880 nM | GI50 (ACHN renal): 1500 nM | TGI (ACHN renal): 2820 nM | GI50 (TK-10 renal): 2690 nM | TGI (TK-10 renal): 4210 nM | GI50 (RXF 393 renal): 1710 nM | TGI (RXF 393 renal): 3170 nM | GI50 (SF-295 CNS): 1700 nM | TGI (SF-295 CNS): 3160 nM | GI50 (HCT-15 colon): 984 nM | TGI (HCT-15 colon): 2450 nM | GI50 (SF-539 CNS): 1330 nM | TGI (SF-539 CNS): 2620 nM | GI50 (IGROV1 ovarian): 1050 nM | TGI (IGROV1 ovarian): 2380 nM | GI50 (UACC-257 melanoma): 1860 nM | TGI (UACC-257 melanoma): 3330 nM | GI50 (A549 NSCLC): 1790 nM | TGI (A549 NSCLC): 3340 nM | GI50 (OVCAR-8 ovarian): 1600 nM | TGI (OVCAR-8 ovarian): 3020 nM | GI50 (OVCAR-5 ovarian): 1380 nM | TGI (OVCAR-5 ovarian): 2780 nM | GI50 (NCI-H23 lung): 1370 nM | TGI (NCI-H23 lung): 2900 nM | GI50 (KM12 colon): 1210 nM | TGI (KM12 colon): 2490 nM | GI50 (SW-620 colon): 1080 nM | TGI (SW-620 colon): 2410 nM | GI50 (SK-OV-3 ovarian): 2040 nM | TGI (SK-OV-3 ovarian): 3630 nM | GI50 (SNB-19 CNS): 1410 nM | TGI (SNB-19 CNS): 2740 nM | GI50 (SK-MEL-2 melanoma): 1690 nM | TGI (SK-MEL-2 melanoma): 3100 nM | GI50 (A498 renal): 1930 nM | TGI (A498 renal): 3910 nM | GI50 (M14 melanoma): 1490 nM | TGI (M14 melanoma): 3010 nM | GI50 (SK-MEL-5 melanoma): 1760 nM | TGI (SK-MEL-5 melanoma): 3170 nM | GI50 (SF-268 CNS): 1540 nM | TGI (SF-268 CNS): 2990 nM | GI50 (HS 578T breast): 1610 nM | TGI (HS 578T breast): 4610 nM | GI50 (UO-31 renal): 1120 nM | TGI (UO-31 renal): 2330 nM | GI50 (K-562 leukemia): 308 nM | TGI (K-562 leukemia): > 100000 nM | GI50 (CAKI-1 renal): 1550 nM | TGI (CAKI-1 renal): 2910 nM | GI50 (SK-MEL-28 melanoma): 1520 nM | TGI (SK-MEL-28 melanoma): 2890 nM | GI50 (LOX IMVI melanoma): 433 nM | TGI (LOX IMVI melanoma): 1530 nM | GI50 (HCC-2998 colon): 1730 nM | TGI (HCC-2998 colon): 3300 nM | GI50 (MALME-3M melanoma): 1670 nM | TGI (MALME-3M melanoma): 3090 nM | GI50 (HT29 colon): 1530 nM | TGI (HT29 colon): 3320 nM | GI50 (NCI-H460 lung): 1280 nM | TGI (NCI-H460 lung): 2750 nM | GI50 (DU-145 prostate): 1650 nM | TGI (DU-145 prostate): 3010 nM | GI50 (MOLT-4 leukemia): 315 nM | TGI (MOLT-4 leukemia): > 100000 nM | GI50 (UACC-62 melanoma): 1630 nM | TGI (UACC-62 melanoma): 3100 nM | GI50 (SNB-75 CNS): 1490 nM | TGI (SNB-75 CNS): 2820 nM | GI50 (HCT-116 colon): 1140 nM | TGI (HCT-116 colon): 2660 nM | GI50 (HOP-62 NSCLC): 1830 nM | TGI (HOP-62 NSCLC): 3420 nM | GI50 (MCF7 breast): 1000 nM | TGI (MCF7 breast): 2840 nM | GI50 (SR leukemia): 334 nM | TGI (SR leukemia): > 100000 nM | GI50 (786-0 renal): 1560 nM | TGI (786-0 renal): 3020 nM | GI50 (EKVX NSCLC): 661 nM | TGI (EKVX NSCLC): 2060 nM | GI50 (U251 CNS): 1230 nM | TGI (U251 CNS): 2560 nM | GI50 (BT-549 breast): 1070 nM | TGI (BT-549 breast): 2310 nM
